Measured values reported in PubChem BioAssay AID2060891 (Molecular Pharmacology Branch, DTP, NCI, 2025).

Test system: K98450-129-R-PDC complex spheroid growth, percent test/control
Test: Anticancer human tumor K98450-129-R-PDC patient-derived colon adenocarcinoma cell line growth inhibition [RAS]
Settings: for IC50: curve of first compound; for viability, T/C: stronger effect = lower value
Method in brief: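 Agents were tested in combination matrices in half-log decrements from a top concentration at or near clinical Cmax (10 microM if undetermined). Targets were multi-cell spheroids of tumour lines plus HUVEC and MSC stromal cells.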

[1] = second compound 0.000949 µM, first compound 0.0316 µM
[2] = second compound 0.000949 µM, first compound 0.1 µM
[3] = second compound 0.000949 µM, first compound 0.316 µM
[4] = second compound 0.000949 µM, first compound 1 µM
[5] = second compound 0.000949 µM, first compound 3.16 µM
[6] = second compound 0.000949 µM, first compound 10 µM
[7] = second compound 0.003 µM, first compound 0.0316 µM
[8] = second compound 0.003 µM, first compound 0.1 µM
[9] = second compound 0.003 µM, first compound 0.316 µM
[10] = second compound 0.003 µM, first compound 1 µM
[11] = second compound 0.003 µM, first compound 3.16 µM
[12] = second compound 0.003 µM, first compound 10 µM
[13] = second compound 0.00949 µM, first compound 0.0316 µM
[14] = second compound 0.00949 µM, first compound 0.1 µM
[15] = second compound 0.00949 µM, first compound 0.316 µM
[16] = second compound 0.00949 µM, first compound 1 µM
[17] = second compound 0.00949 µM, first compound 3.16 µM
[18] = second compound 0.00949 µM, first compound 10 µM
[19] = second compound 0.03 µM, first compound 0.0316 µM
[20] = second compound 0.03 µM, first compound 0.1 µM
[21] = second compound 0.03 µM, first compound 0.316 µM
[22] = second compound 0.03 µM, first compound 1 µM
[23] = second compound 0.03 µM, first compound 3.16 µM
[24] = second compound 0.03 µM, first compound 10 µM
[25] = second compound 0.0949 µM, first compound 0.0316 µM
[26] = second compound 0.0949 µM, first compound 0.1 µM
[27] = second compound 0.0949 µM, first compound 0.316 µM
[28] = second compound 0.0949 µM, first compound 1 µM
[29] = second compound 0.0949 µM, first compound 3.16 µM
[30] = second compound 0.0949 µM, first compound 10 µM
[31] = second compound 0.3 µM, first compound 0.0316 µM
[32] = second compound 0.3 µM, first compound 0.1 µM
[33] = second compound 0.3 µM, first compound 0.316 µM
[34] = second compound 0.3 µM, first compound 1 µM
[35] = second compound 0.3 µM, first compound 3.16 µM
[36] = second compound 0.3 µM, first compound 10 µM
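Note: spheroids exposed to agents for seven days before the viability readout.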
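Throughout, for viability, T/C: luminescence used as a proxy for viable cell amount.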

With `CC(Nc1ccc2c(c1)OCCn1cc(N3C(=O)OCC3C(F)F)nc1-2)C(N)=O` (centres undefined) + CCn1c(-c2cc(N3CCN(C)CC3)cnc2C(C)OC)c2c3cc(ccc31)-c1csc(n1)CC(NC(=O)C1CC1C)C(=O)N1CCCC(N1)C(=O)OCC(C)(C)C2 the IC50 (second compound 0.000949 µM) was over 10 µM, the IC50 (second compound 0.003 µM) was over 10 µM and the IC50 (second compound 0.00949 µM) was over 10 µM. It also gave an IC50 (second compound 0.03 µM) of under 0.0316 µM, an IC50 (second compound 0.0949 µM) of under 0.0316 µM and an IC50 (second compound 0.3 µM) of under 0.0316 µM. It also gave a viability, T/C [1] of 93.6%, a viability, T/C [2] of 83.7% and a viability, T/C [3] of 86.7%. The viability, T/C [4] was 63.9%, the viability, T/C [5] was 70.4% and the viability, T/C [6] was 61.7%. For the same molecule, the viability, T/C [7] was 84%, the viability, T/C [8] was 81.1% and the viability, T/C [9] was 75.2%. The viability, T/C [10] was 67.5%, the viability, T/C [11] was 68.4% and the viability, T/C [12] was 61.3%. The viability, T/C [13] was 73.8%, the viability, T/C [14] was 74.8% and the viability, T/C [15] was 60.5%. For the same molecule, the viability, T/C [16] was 55.4%, the viability, T/C [17] was 54.8% and the viability, T/C [18] was 51%. The viability, T/C [19] was 38.4%, the viability, T/C [20] was 48.4% and the viability, T/C [21] was 42.3%. It also gave a viability, T/C [22] of 35.4%, a viability, T/C [23] of 33.8% and a viability, T/C [24] of 26.8%. It also gave a viability, T/C [25] of 17.5%, a viability, T/C [26] of 15.9% and a viability, T/C [27] of 16%. For the same molecule, the viability, T/C [28] was 14.7%, the viability, T/C [29] was 10.8% and the viability, T/C [30] was 10.1%. It also gave a viability, T/C [31] of 10%, a viability, T/C [32] of 10.2% and a viability, T/C [33] of 9.37%. The viability, T/C [34] was 8.15%, the viability, T/C [35] was 7.17% and the viability, T/C [36] was 4.8%.

`C[C@@H](NC(=O)c1ncnc(N)c1Cl)c1ncc(C(=O)Nc2cc(C(F)(F)F)c(Cl)cn2)s1` + CCn1c(-c2cc(N3CCN(C)CC3)cnc2C(C)OC)c2c3cc(ccc31)-c1csc(n1)CC(NC(=O)C1CC1C)C(=O)N1CCCC(N1)C(=O)OCC(C)(C)C2 gave an IC50 (second compound 0.000949 µM) of over 10 µM, an IC50 (second compound 0.003 µM) of over 10 µM and an IC50 (second compound 0.00949 µM) of over 10 µM. It also gave an IC50 (second compound 0.03 µM) of over 10 µM, an IC50 (second compound 0.0949 µM) of under 0.0316 µM and an IC50 (second compound 0.3 µM) of under 0.0316 µM. For the same molecule, the viability, T/C [1] was 105%, the viability, T/C [2] was 103% and the viability, T/C [3] was 106%. It also gave a viability, T/C [4] of 97.2%, a viability, T/C [5] of 103% and a viability, T/C [6] of 90.5%. It also gave a viability, T/C [7] of 105%, a viability, T/C [8] of 88.8% and a viability, T/C [9] of 88.4%. The viability, T/C [10] was 90.7%, the viability, T/C [11] was 110% and the viability, T/C [12] was 77.1%. It also gave a viability, T/C [13] of 76.1%, a viability, T/C [14] of 70.7% and a viability, T/C [15] of 81.8%. For the same molecule, the viability, T/C [16] was 88.8%, the viability, T/C [17] was 75.3% and the viability, T/C [18] was 62.4%. It also gave a viability, T/C [19] of 57.7%, a viability, T/C [20] of 62.3% and a viability, T/C [21] of 74.1%. It also gave a viability, T/C [22] of 67.3%, a viability, T/C [23] of 73.9% and a viability, T/C [24] of 51.5%. The viability, T/C [25] was 25.3%, the viability, T/C [26] was 31.9% and the viability, T/C [27] was 37%. The viability, T/C [28] was 31.9%, the viability, T/C [29] was 37.3% and the viability, T/C [30] was 17.8%. It also gave a viability, T/C [31] of 11.4%, a viability, T/C [32] of 14.6% and a viability, T/C [33] of 16.4%. It also gave a viability, T/C [34] of 13.5%, a viability, T/C [35] of 16% and a viability, T/C [36] of 11%.
